According to patent publication US10351547B2, “Somatostatin modulators and uses thereof” (priority 2016, dated 2019):

Target: human SSTR2 (Homo sapiens (Human), UniProt P30874)
Experiment: Human SSTR2 intracellular cAMP functional assay for agonists (HTRF)
Format: cell-based
Conditions: not given
Description: Functional Assay for SSTR2 Agonists
General overview: All five SSTR subtypes are Gi coupled G-protein coupled receptors (GPCRs) that lead to decreases in intracellular cyclic AMP (cAMP) when activated by an agonist. […] Human SSTR2 intracellular cAMP assay is described below. The human SSTR1, 3, 4 and 5 assays follow the same protocol of SSTR2.
The cells are cultured at 37° C., 5% CO2 and 95% humidity. […] The cells are incubated for 20 minutes at 37° C. […] The cells are treated with 50 μL of lysis buffer (HRTF cAMP kit, Cisbio). […] The time-resolved fluorescent signal is read with a Tecan M1000Pro multiplate reader. The intracellular cAMP concentrations are calculated by regression to a standard curve and are plotted vs. the concentration of the compounds of the invention and the EC50 of the compounds are calculated using standard methods. All data manipulations are in GraphPad Prism v6.

Sequence of human SSTR2 (P30874 whole entry): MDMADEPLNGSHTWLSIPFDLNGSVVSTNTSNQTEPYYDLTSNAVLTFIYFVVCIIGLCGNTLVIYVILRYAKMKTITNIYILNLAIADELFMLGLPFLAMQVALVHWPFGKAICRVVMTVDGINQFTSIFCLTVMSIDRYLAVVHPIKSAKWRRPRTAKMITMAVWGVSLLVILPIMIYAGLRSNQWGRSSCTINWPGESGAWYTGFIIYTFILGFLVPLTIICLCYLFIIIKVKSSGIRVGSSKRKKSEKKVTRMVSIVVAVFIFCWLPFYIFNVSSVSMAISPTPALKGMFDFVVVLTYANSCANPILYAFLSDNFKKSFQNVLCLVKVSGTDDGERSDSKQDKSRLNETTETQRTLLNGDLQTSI

Molecule | EC50 [nM]
CO[C@@H]1CN(c2c(-c3cc(F)cc(F)c3)cnc3ccc(-c4cccc(C#N)c4O)cc23)CC[C@H]1N (relative stereo) [2-3, 3-{4-[trans-4-amino-3-methoxypiperidin-1-yl]-3-(3,5-difluorophenyl)quinolin-6-yl}-2-hydroxybenzonitrile] | < 10
N#Cc1cccc(-c2ccc3ncc(-c4cc(F)cc(F)c4)c(N4CC[C@@H](N)[C@@H](O)C4)c3c2)c1O (relative stereo) [2-60, cis-3-{4-[4-amino-3-hydroxypiperidin-1-yl]-3-(3,5-difluorophenyl)quinolin-6-yl}-2-hydroxybenzonitrile] | < 10
CNC(=O)[C@@H]1CN(c2c(-c3cc(F)cc(F)c3)cnc3ccc(-c4cccc(C#N)c4O)cc23)CC[C@H]1N (relative stereo) [2-149, trans-4-Amino-1-[6-(3-cyano-2-hydroxyphenyl)-3-(3,5-difluorophenyl)quinolin-4-yl]-N-methylpiperidine-3-carboxamide] | 100 to 1000

Same assay, conditions: CHO-K1 cells stably expressing human SSTR2; NKH477-stimulated cAMP; read-out: EC50 (inhibition of cAMP activities via human SST2R)

Molecule | EC50 [nM]
3-[4-(4-aminopiperidin-1-yl)-7-chloro-3-(3,5-dichlorophenyl)cinnolin-6-yl]-5-fluoro-2-hydroxybenzonitrile [1-27] | < 10
Oc1c(F)cccc1-c1ccc2ncc(-c3cc(F)cc(F)c3)c(N3CC[C@H]4NCCO[C@@H]4C3)c2c1 (racemic) [2-144, trans-2-[3-(3,5-difluorophenyl)-4-{octahydro-1H-pyrido[3,4-b]morpholin-6-yl}quinolin-6-yl]-6-fluorophenol] | < 10
COCCOc1c(C#N)cccc1-c1ccc2ncc(-c3cc(C)cc(F)c3)c(N3CC[C@@H](N)[C@@H](O)C3)c2c1 (racemic) [2-224, 3-{4-[cis-4-amino-3-hydroxypiperidin-1-yl]-3-(3-fluoro-5-methylphenyl)quinolin-6-yl}-2-(2-methoxyethoxy)benzonitrile] | < 10
Cc1cc(F)cc(-c2cnc3ccc(-c4cccc(F)c4/C=N/O)cc3c2N2CC[C@@H](N)[C@@H](O)C2)c1 (racemic) [2-227, cis-4-amino-1-(6-{3-fluoro-2-[(hydroxyimino)methyl]phenyl}-3-(3-fluoro-5-methylphenyl)quinolin-4-yl)piperidin-3-ol] | < 10
CO/N=C/c1cccc(-c2ccc3ncc(-c4cc(F)cc(F)c4)c(N4CC[C@H]5NCCO[C@@H]5C4)c3c2)c1O (racemic) [2-243, 2-{4-[trans-octahydro-1H-pyrido[3,4-b]morpholin-6-yl]-3-(3,5-difluorophenyl)quinolin-6-yl}-6-(methoxyiminomethyl)phenol] | < 10
Cc1cc(F)cc(-c2nnc3cc(Cl)c(-c4cc(F)cc(C(N)=O)c4)cc3c2N2CC[C@@H](N)[C@H](F)C2)c1 (relative stereo) [1-5, 3-{4-[trans-4-amino-3-fluoropiperidin-1-yl]-7-chloro-3-(3-fluoro-5-methylphenyl)cinnolin-6-yl}-5-fluorobenzamide] | < 10
Cc1cc(F)cc(-c2nnc3cc(Cl)c(-c4cc(F)cc(C(N)=O)c4)cc3c2N2CC[C@H](N)[C@H](F)C2)c1 (relative stereo) [1-6, 3-{4-[cis-4-amino-3-fluoropiperidin-1-yl]-7-chloro-3-(3-fluoro-5-methylphenyl)cinnolin-6-yl}-5-fluorobenzamide] | < 10
CO[C@@H]1CN(c2c(-c3cc(C)cc(F)c3)nnc3cc(Cl)c(-c4cc(F)cc(C(N)=O)c4)cc23)CC[C@H]1N (relative stereo) [1-10, 3-{4-[trans-4-amino-3-methoxypiperidin-1-yl]-7-chloro-3-(3-fluoro-5-methylphenyl)cinnolin-6-yl}-5-fluorobenzamide] | < 10
CO[C@@H]1CN(c2c(-c3cc(F)cc(F)c3)cnc3ccc(-c4cccc(C#N)c4)cc23)CC[C@H]1N (relative stereo) [2-4, 3-{4-[trans-4-amino-3-methoxypiperidin-1-yl]-3-(3,5-difluorophenyl)quinolin-6-yl}benzonitrile] | < 10
N#Cc1cccc(-c2ccc3ncc(-c4cc(F)cc(F)c4)c(N4CC[C@H]5NCCO[C@@H]5C4)c3c2)c1O (relative stereo) [2-19, 3-{4-[trans-octahydro-1H-pyrido[3,4-b]morpholin-6-yl]-3-(3,5-difluorophenyl)quinolin-6-yl}-2-hydroxybenzonitrile] | < 10
Cc1cc(F)cc(-c2cnc3ccc(-c4cccc(C#N)c4O)cc3c2N2CC[C@H]3NCCO[C@@H]3C2)c1 (relative stereo) [2-20] | < 10
COCOc1c(C#N)cccc1-c1ccc2ncc(-c3cc(F)cc(F)c3)c(N3CC[C@H](N)[C@H](O)C3)c2c1 (relative stereo) [2-58, 3-{4-[cis-4-amino-3-hydroxypiperidin-1-yl]-3-(3,5-difluorophenyl)quinolin-6-yl}-2-(methoxymethoxy)benzonitrile] | < 10
N#Cc1cc(F)cc(-c2ccc3ncc(-c4cc(F)cc(F)c4)c(N4CC[C@H](N)[C@H](O)C4)c3c2)c1O (relative stereo) [2-63, 3-{4-[cis-4-amino-3-hydroxypiperidin-1-yl]-3-(3,5-difluorophenyl)quinolin-6-yl}-5-fluoro-2-hydroxybenzonitrile] | < 10
N#Cc1cccc(-c2ccc3ncc(-c4cc(F)cc(F)c4)c(N4CC[C@@H](N)[C@H](C#N)C4)c3c2)c1O (relative stereo) [2-92, trans-4-amino-1-[6-(3-cyano-2-hydroxyphenyl)-3-(3,5-difluorophenyl)quinolin-4-yl]piperidine-3-carbonitrile] | 100 to 1000
N#Cc1cccc(-c2ccc3ncc(-c4cc(F)cc(F)c4)c(N4CC[C@H](N)[C@H](C#N)C4)c3c2)c1O (relative stereo) [2-94, cis-4-amino-1-[6-(3-cyano-2-hydroxyphenyl)-3-(3,5-difluorophenyl)quinolin-4-yl]piperidine-3-carbonitrile] | 10 to 100
N#Cc1cc(F)c(F)c(-c2ccc3ncc(-c4cc(F)cc(F)c4)c(N4CC[C@H]5NCCO[C@@H]5C4)c3c2)c1O (relative stereo) [2-100, 3-{4-[trans-octahydro-1H-pyrido[3,4-b]morpholin-6-yl]-3-(3,5-difluorophenyl)quinolin-6-yl}-4,5-difluoro-2-hydroxybenzonitrile] | 10 to 100
COC(=O)[C@@H]1CN(c2c(-c3cc(F)cc(F)c3)cnc3ccc(-c4cccc(C#N)c4O)cc23)CC[C@H]1N (relative stereo) [2-143, methyl trans-4-amino-1-[6-(3-cyano-2-hydroxyphenyl)-3-(3,5-difluorophenyl)quinolin-4-yl]piperidine-3-carboxylate] | < 10
N#Cc1cccc(-c2ccc3ncc(-c4cc(F)cc(F)c4)c(N4CC[C@@H](N)[C@H](C(N)=O)C4)c3c2)c1O (relative stereo) [2-146, trans-4-Amino-1-[6-(3-cyano-2-hydroxyphenyl)-3-(3,5-difluorophenyl)quinolin-4-yl]piperidine-3-carboxamide] | > 1000
CN(C)C(=O)[C@@H]1CN(c2c(-c3cc(F)cc(F)c3)cnc3ccc(-c4cccc(C#N)c4O)cc23)CC[C@H]1N (relative stereo) [2-151, trans-4-amino-1-[6-(3-cyano-2-hydroxyphenyl)-3-(3,5-difluorophenyl)quinolin-4-yl]-N,N-dimethylpiperidine-3-carboxamide] | 100 to 1000
